# Results reported in article PMC4459685, “Design and characterization of a new peptide vector for short interfering RNA delivery” (Journal of Nanobiotechnology, 2015).
# B1: eGFP siRNA (dsRNA)
# RNA 1: GACGUAAACGGCCACAAGUUC
# RNA 2: ACUUGUGGCCGUUUACGUCGC
# Columns and labels:
# [1] = tested on: siRNA; experiment: Isothermal titration calorimetry, titrating siRNA with GL1; assay type: binding
# Method: The isothermal titration calorimetry experiments were conducted using a Nano-ITC calorimeter (TA Instruments). A 500 μM GL1 peptide solution and a 10 μM siRNA solution were both prepared in RNase-free water. All of the samples were degassed in a degassing station (TA Instruments) prior to the experiments. RNase-free water was placed in the ITC reference cell. For each titration, 2 μl of the peptide in a pipette rotating at 250 rpm was injected into the siRNA solution in the sample cell of the calorimeter, which was equilibrated to 25°C, with an interval of 300 s between injections. The heat of dilution was measured by titrating the GL1 solution into RNase-free water and was later subtracted from the sample measurement. The data were analyzed using NanoAnalyze software v.3.1.2.
# The ability of GL1 to interact with siRNA was investigated by gel electrophoresis. Binding between peptide and siRNA prevented RNA from being stained by EtBr. […] At a slightly higher molar ratio 15/1, no free siNRA was detected on the agarose gel. […] This direct binding between cationic peptide and anionic siRNA would be initiated via electrostatic interactions. The formation of GL1-siRNA complexes and the thermodynamic parameters associated with the binding between peptide and siRNA was further investigated using isothermal titration calorimetry by titrating the siRNA with GL1. The heat exchange during the titration of siRNA by GL1 (in RNase-free water) was detected by the machine and output as raw data. By fitting the raw data (upper panel of Figure 2) to a single-site model (lower panel of Figure 2), the thermodynamic parameters during the interaction were obtained and listed in Table 1.
# Figure 2 Calorimetric titration of siRNA with GL1 at 25°C in RNasefree water at pH 6. a Corrected thermogram of calorimetric titration of siRNA with GL1. b Binding analysis of siRNA with GL1 by fitting the raw data with an independent model. GL1 concentration was 500 μM and siRNA concentration was 10 μM.
# [2] = tested on: eGFP siRNA; experiment: Agarose gel-shift assay of peptide-siRNA complex formation; assay type: binding; details: 1.2% agarose gel, 300 ng eGFP siRNA
# Method: The GL1-siRNA complexes in RNase-free water were made with 300 ng of eGFP siRNA. The samples of siRNA alone and GL1-siRNA complexes at molar ratios (peptide/siRNA) ranging from 1/1 to 80/1 were electrophoresed on a 1.2% wt/vol agarose gel in 1× TBE at 55 V for 1 h. The ethidium bromide-stained siRNA was visualized on an ultraviolet transilluminator with a camera.
# Figure 1 Binding ability of siRNA to GL1 studied by agarose gel-shift assay The formed GL1-siRNA complexes, stained with ethidium bromide, were investigated by electrophoresis on agarose gel (1.2% wt/vol). siRNAs, targeting eGFP genes, were complexed with GL1 at a series of molar ratios from 1/1 to 80/1. Lane 1 was siRNA control, and lanes 2–8 indicated correlated molar ratios. The amount of siRNA was 300 ng.
# [3] = tested on: CHO-K1 cells; experiment: FACS cellular uptake of Cy3-labeled GAPDH siRNA; assay type: cell-based, Chinese hamster; details: Cy3-labeled GAPDH siRNA 100 nM, 4 h
# Method: The uptake of Cy3-labeled siRNA into the CHO-K1 cells was quantified with a BD FACSVantage SE Cell Sorter flow cytometry (BD Biosciences, United States). CHO-K1 cells were plated at a density of 50,000 cells per well and incubated for 24 h in a 24-well flat-bottom plate. The medium was replaced with GL1-siRNA complexes and control samples in OPTI-MEM (Invitrogen) or F12-K supplemented with 10% FBS with a siRNA concentration of 100 nM. After 4 h of incubation, the cells were rinsed with phosphate buffered saline (PBS) and washed with heparin (10 U/ml). After, trypsin–EDTA was added to detach the cells from the plate. The cells were re-suspended in 4% paraformaldehyde (PFA) and ready for quantitative analysis.
# Figure 5 a Fluorescence microscope image of GL1-siRNA complexes at molar ratio 40/1 (magnification 40×). The red fluorescence indicated Cy3 labeled siRNA, blue fluorescence represented DAPI stained nuclei. […] Non-treated sample was negative control; Lipo-siRNA complexes were positive control. Cy3 labeled GAPDH siRNA was used here. siRNA concentration was 100 nM in both experiments. NT non-treated, MR peptide/siRNA molar ratio, Lipo Lipofectamine 2000. Results are expressed as mean ± standard deviation (n = 3).
# [4] = tested on: CHO-K1 cells; experiment: MTT cytotoxicity assay; assay type: cell-based, Chinese hamster; details: siRNA 50 nM, 4 h Opti-MEM then 48 h, molar ratio 10/1
# Method: The cytotoxicity of peptide-siRNA complexes was determined by the MTT assay. In brief, cells were seeded at 5,000 cells/well in clear, flat-bottomed, 96-well plates (Costar) 24 h before treatment. After being washed, 100 μl of Opti-MEM that contained peptide-siRNA complexes at different molar ratios was added to the wells and incubated for 4 h. Thereafter, 50 μl of 30% serum containing medium was added, and the cytotoxicity of the relevant reagents was determined by the MTT assay after 48 h. The absorbance at 570 nm was read on a plate reader (FLUOstar OPTIMA, BMG, Germany). The background absorbance of the multiwell plates at 690 nm was determined and subtracted from the 570 nm measurement. The results obtained from triplicate wells were averaged and normalized to the value obtained from the non-treated cells.
# Figure 7 Cell viability results of CHO-K1 cells treated with naked Lipofectamine 2000 or GL1, and the complexes with siRNA (50 nM) at different molar ratios. NT non-treated, MR peptide/siRNA molar ratio, Lipo Lipofectamine 2000. Results are expressed as mean ± standard deviation (n = 3). *P value < 0.05, the cell viability after GL1 treatment is statistically significant than that after Lipo treatment.
# [5] = tested on: siRNA; details: cited from earlier work
# Excerpt: Here, an amphipathic, cationic peptide GL1 was designed and investigated. Structurally, GL1 has dispersed cationic amino acids along the sequence, which differs from the arginine rich peptide R9, R9-hLF, and Tat. The peptide MPG and MPG-like peptides consist of a hydrophobic domain and a hydrophilic domain which contributes to their amphipathic property; while PF6 and PF14 incorporated a stearyl moiety in their sequences to improve amphiphilicity. However, peptide GL1 has hydrophilic and hydrophobic amino acids dispersed along the sequence, which leads to its amphipathicity ...
# [6] = target: T1, GL1 peptide (synthetic (designed)); experiment: EMSA (agarose gel shift, EtBr); peptide/siRNA molar ratios 1/1 to 80/1; no free siRNA at 15/1, strongly reduced at 10/1; 300 ng siRNA; ITC: RNase-free water, pH 6, 25 C, 500 uM GL1 into 10 uM siRNA; gel shift: 1.2% agarose, EtBr, 20 min incubation, buffer not given; details: tags: N-terminal acetyl, C-terminal amide
# T1 chain: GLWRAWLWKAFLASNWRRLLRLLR
# [7] = ITC, 500 μM GL1 titrated into 10 μM siRNA, RNase-free water pH 6, 25°C
molecule,measurement,setting,value
Ac-GLWRAWLWKAFLASNWRRLLRLLR-NH2 [GL1],"n (molar stoichiometry, mol GL1 per mol siRNA)",[1]; [7],7.16
same,ΔH (enthalpy),[1]; [7],-4.472 kcal/mol
same,ΔS,[1]; [7],64.56 J/(mol K)
same,Kd,"[1]; ITC, 500 μM GL1 titrated into 10 μM siRNA, RNase-free water pH 6, 25°C, read-out: Kd (dissociation constant)",224 nM
same,ΔG,"[1]; calculated with ΔG = ΔH − TΔS, ITC at 25°C",-9.068 kcal/mol
same,minimal peptide/siRNA molar ratio for siRNA delivery / complex formation,[2],around 10/1
same,peptide/siRNA molar ratio at which no free siRNA is detected (all free siRNA encapsulated),"[2]; ethidium bromide, molar ratios 1/1 to 80/1",15/1
same,cellular uptake of siRNA,"[3]; F12-K with 10% FBS, molar ratio 20/1, mean n = 3",75%
same,cellular uptake of siRNA,"[3]; F12-K with 10% FBS, molar ratio 40/1, mean n = 3",84%
same,cellular uptake of siRNA,"[3]; OPTI-MEM without serum, molar ratio 20/1, mean n = 3",95%
same,cellular uptake of siRNA,"[3]; OPTI-MEM without serum, molar ratio 40/1, mean n = 3",95%
same,cellular uptake of siRNA,"[3]; in the presence of serum, molar ratio not stated at the place, mean n = 3",~ 84%
same,cellular uptake of siRNA,"[3]; serum free, molar ratio not stated at the place, mean n = 3",~ 95%
same,toxicity,[4],did not cause toxicity
TP10,molar ratio required to encapsulate all the free siRNA,[5],50/1
B1,binding result,[6],binds
